This is an account of results in ChEMBL document CHEMBL4266023, “NMR-Based Investigation of Hydrogen Bonding in a Dihydroanthracen-1(4 H)one from Rubia philippinensis and Its Soluble Epoxide Hydrolase Inhibitory Potential” (J Nat Prod, 2018).

This assay has as its target T1, Bifunctional epoxide hydrolase 2 (Homo sapiens, UniProt P34913).
T1 sequence (P34913 whole entry): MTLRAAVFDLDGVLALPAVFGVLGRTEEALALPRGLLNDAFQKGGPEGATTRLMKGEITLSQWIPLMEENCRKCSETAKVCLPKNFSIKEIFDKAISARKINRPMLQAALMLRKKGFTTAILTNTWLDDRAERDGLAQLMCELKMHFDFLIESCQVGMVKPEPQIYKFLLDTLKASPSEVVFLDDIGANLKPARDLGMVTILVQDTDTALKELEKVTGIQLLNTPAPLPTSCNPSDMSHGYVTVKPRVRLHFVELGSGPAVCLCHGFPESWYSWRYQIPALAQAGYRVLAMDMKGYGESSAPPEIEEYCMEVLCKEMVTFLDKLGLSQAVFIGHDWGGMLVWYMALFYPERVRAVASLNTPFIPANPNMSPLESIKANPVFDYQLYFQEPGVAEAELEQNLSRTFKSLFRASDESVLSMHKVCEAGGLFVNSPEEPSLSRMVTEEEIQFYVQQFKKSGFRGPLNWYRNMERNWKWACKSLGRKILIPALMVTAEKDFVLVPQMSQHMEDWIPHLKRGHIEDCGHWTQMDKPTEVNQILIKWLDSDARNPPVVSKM
In words: Inhibition of soluble epoxide hydrolase (unknown origin) using NEPC as substrate after 1 hr by fluorescence assay.

A word on the IC50: it is the point on the concentration scale where inhibition reaches its midpoint. Read a low IC50 as inhibition by little substance. With `CC1=CC[C@@H]2C(=C(O)c3ccccc3[C@@H]2O)C1=O`, the IC50 was determined as 1100 nM.

Take `Cc1ccc2c(O[C@@H]3O[C@H](CO)[C@@H](O)[C@H](O)[C@H]3O)c3ccccc3c(O[C@@H]3O[C@H](CO)[C@@H](O)[C@H](O)[C@H]3O)c2c1`: the 50% inhibitory concentration (IC50) was found to be 300 nM.
